Source: patent US20060264418A1, “6-(2,2,2-Trifluoroethylamino-7-chloro-2,3,4,5-tetrahydro-1h-benzo[d] azephine as a 5-ht2c receptor agonist” (priority 2003, published 2006)
pIC50: −log10 of the molar value.

What was measured:
[1] = molecular target: alpha 2 adrenergic receptor; test: Radioligand receptor binding assay, alpha 2 adrenergic
[2] = system: male NIH Swiss mice; test: Marble burying assay (with rotorod); format: in vivo, mouse
Source text: Marble burying in mice has been used to model anxiety disorders including obsessive-compulsive disorders (OCD) due to ethological study of the behavior (e.g. Gyertyan I. “Analysis of the marble burying response: Marbles serve to measure digging rather than evoke burying”, Behavioural Pharmacology 6: 24-31, (1995)) and due to the pharmacological effects of clinical standards (c.f., Njung′E K. Handley S L. “Evaluation of marble-burying behavior as a model of anxiety”, Pharmacology, Biochemistry & Behavior. 38: 63-67, (1991)); Borsini F., Podhorna J., and Marazziti, D. “Do animal models of anxiety predict anxiolytic effects of antidepressants?”, Psychopharmacology 163: 121-141, (2002)). Thus, drugs used in the treatment of generalized anxiety in humans (e.g. benzodiazepines) as well as compounds used to treat OCD (e.g. SSRIs like fluoxetine) decrease burying.
House experimentally-naïve male, NIH Swiss mice (Harlan Sprague-Dawley, Indianapolis, Ind.) weighing between 28-35 g in groups of 12 for at least three days prior to testing in a vivarium with 12 hr. light and dark cycles. Conduct experiments during the light cycle in a dimly lit experimental testing room. Dose mice with vehicle or compound and, after a specified pretreatment interval (generally 30 min.), place each mouse individually on a rotorod (Ugo Basile 7650) operating at a speed of 6 revolutions/min. and observe for falling. After 2 min. on the rotorod, place the mice individually in a 17×28×12 cm high plastic tub with 5 mm sawdust shavings on the floor that are covered with 20 blue marbles (1.5 cm diameter) placed in the center. After 30 min., count the number of marbles buried (⅔ covered with sawdust). Assess the compound's effect on marble burying with Dunnett's test and the effect on rotorod performance by Fisher's exact test.
Clinically effective standard compounds suppress marble burying at doses that are devoid of motor-impairing effects as measured on the rotorod. […]

[3] = molecular target: alpha 1 adrenergic receptor; test: Radioligand receptor binding assay, alpha 1 adrenergic
[4] = system: male Long-Evans rats; test: Calorimetric acute feeding assay; format: in vivo, rat; conditions: oral dose
Source text: (§1) Animals: Obtain male Long-Evans rats (Harlan Sprague-Dawley, Indianapolis, Ind.) that are approximately one hundred-days old and have been maintained on a calorie rich diet since weaning (TD 95217, 40% calories from fat; Teklad, Madison, Wis.). House the rats individually with a 12 hr.:12 hr. light:dark cycle (lights on from about 22:00 hr. to about 10:00 hr.) and maintain rats on the same diet (TD 95217) with free access to water, for about 1-2 weeks to acclimate the rats to the environment. Dose rats orally with vehicle (10% acacia with 0.15% saccharin in water) once daily for at least 1 day (typically 1-2 days) to acclimate the rats to the procedures. Randomize the rats into groups so each group has similar mean body weights.
Calorimetric Acute Feeding Assay: At approximately 8:00 hr. on the day of assay, weigh each rat and transfer to individual chambers of an open circuit calorimetry system (Oxymax, Columbus Instruments International Corporation; Columbus, Ohio), with free access to food (pre-weighed) and water, and begin measuring VO2 and VCO2. At approximately 10:00 hr., dose rats orally with vehicle or test compound, return them to their calorimetry chambers, and continue measuring VO2 and VCO2 at regular time intervals (approximately hourly). At approximately 8:00 hr. the following day, measure rat body weight and the remaining food, assuming the difference in weight of food is equal to the mass of food consumed. Calculate the 24 hr. energy expenditure (EE) and respiratory quotient (RQ) essentially as described in Chen, Y. and Heiman, M. L., Regulatory Peptide, 92:113-119 (2000). […]
Calculate EE as the product of calorific value (CV) and VO2 per body weight (kg); where CV=3.815+1.232*RQ, and RQ is the ratio of CO2 produced (VCO2) to O2 consumed (VO2). Caloric intake is calculated as (mass of 24 hr. food intake in grams)×(physiological fuel value of the diet in kilocalorie/g) per kg of body weight.

[5] = system: male Long-Evans rats; test: Chronic feeding assay; format: in vivo, rat
Source text: as §1
Chronic Feeding Assay: At between approximately 8:00 hr. and 10:00 hr. on day one of the assay, weigh and orally dose each rat with vehicle or test compound and return the animal to its home cage, with free access to food (pre-weighed) and water. For each of days 2-15, at between approximately 8:00 hr. and 10:00 hr., measure rat body weight and the weight of food consumed in the last 24 hr. period, and administer daily oral dose of test compound or vehicle. On days −2 and 15 measure total fat mass and lean mass by nuclear magnetic resonance (NMR) using an EchoMRI™ system (Echo Medical Systems, Houston Tex.). (See Frank C. Tinsley, Gersh Z. Taicher, and Mark L. Heiman, “Evaluation of a New Quantitative Magnetic Resonance (QMR) Method for Mouse Whole Body Composition Analysis”, Obesity Research, submitted May 1, 2003.)

[6] = daily oral dose days 1-15, compared to control animals

Q: How did the pIC50 [1] turn out when `FC(F)(F)CNc1c(Cl)ccc2c1CCNCC2.O=C(O)CCC(=O)O` [Example 2, 7-Chloro-6-(2,2,2-trifluoroethylamino)-2,3,4,5-tetrahydro-1H-benzo[d]azepine Succinic Acid Salt] was run?
A: The pIC50 was < 5.52.

Q: And the “reduction of burying behavior with co-administration of the 5-HT2C antagonist” value [2]?
A: The value was “blocked”.

Q: And the “marble burying behavior (relative to rotorod performance)” value ([2]; 30 min. burying session)?
A: The value was “reduce burying behavior”.

Q: And the pIC50 [3]?
A: Its pIC50 is < 5.52.

Q: And the “24 hr. food intake” value ([4]; acute assays, rats on calorie rich diet)?
A: The value was “significantly reduce 24 hr. food intake”.

Q: What about the “respiratory quotient (RQ)” value ([4]; acute, 24 hr. calorimetry) of the same compound?
A: Its value is “dose-dependently reduced RQ”.

Q: And the “energy expenditure during the light photoperiod” value ([4]; acute, indicative of resting metabolic rate)?
A: Its value is “without significantly changing”.

Q: And the lean body mass ([5]; NMR, days -2 and 15)?
A: The lean body mass was “not changed”.

Q: What about the “cumulative body weight change” value [5, 6] of the same compound?
A: Its value is “significantly decrease”.

Q: And the cumulative food intake [5, 6]?
A: The cumulative food intake was “significantly decrease”.

Q: And the “source of the decrease in body weight (fat mass by NMR)” value ([5]; days -2 and 15)?
A: The value was “loss of adipose tissue”.
